Measurements taken from US5914313A, “1-[4-hydroxy-5-aminoethyloxy-N^2 -(10,12-dimethyl-1-oxotetradecyl)ornithine]-5-(3-hydroxyglutamine)-6-(3- hydroxyproline)echinocandin B, other aminoalkyl derivatives and salts thereof” (Merck & Co., Inc., priority 1993, dated 1999).

Legend:
Candida albicans MY 1055 [1] = test: In vivo effectiveness: recoverable Candida CFU in kidneys of infected mice; details: 0.4 mg/kg I.P. twice daily for four consecutive days; DBA/2 mice; kidneys after seven days
Method: Growth from an overnight SDA culture of Candida albicans MY 1055 was suspended in sterile saline and the cell concentration determined by hemacytometer count and the cell suspension adjusted to 3.75×10^5 cells/ml. Then 0.2 milliliter of this suspension was administered I.V. in the tail vein of mice so that the final inoculum was 7.5×10^4 cells/mouse.
The assay then was carried out by administering aqueous solutions of Compound I (R1 =--CH2 CH2 NH2) at various concentrations intraperitoneally (I.P.), twice daily (b.i.d.) for four consecutive days to 18 to 20 gram female DBA/2 mice, which previously had been infected with Candida albicans (MY 1055) in the manner described above. Distilled water was administered I.P. to C. albicans challenged mice as controls. After seven days, the mice were sacrificed by carbon dioxide gas, paired kidneys were removed aseptically and placed in sterile polyethylene bags containing 5 milliters of sterile saline. The kidneys were homogenized in the bags, serially diluted in sterile saline and aliquots spread on the surface of SDA plates. The plates were incubated at 35° C. for 48 hours and yeast colonies were enumerated for determination of colony forming units (CFU) per-gram of kidneys.

Candida albicans MY 1055 [2] = test: Minimum fungicidal concentration (MFC), microbroth dilution assay in YNBD; assay type: cell-based; details: YNBD medium; MFC = lowest concentration showing no growth or less than 4 colonies per spot
Source text: (§1) The compounds of the present invention are active against many fungi and as previously indicated particularly against Candida species. The antifungal properties may be illustrated with the minimum fungicidal concentration (MFC) determination against certain Candida organisms in a microbroth dilution assay carried out in a Yeast Nitrogen Base (Difco) medium with 1 percent dextrose (YNBD).
(§2) In carrying out the assay, Compound I was solubilized in 10 percent dimethyl sulfoxide (DMSO) and diluted to 2560 μg/ml. The compound was then diluted to 256 μg/ml in YNBD. 0.15 mL of the suspension was dispensed to the top row of a 96-well plate (each well containing 0.15 ml of YNBD) resulting in a drug concentration of 128 μg/ml. Two-fold dilutions were then made from the top row to obtain final drug concentrations ranging from 128 to 0.06 μg/ml.
(§3) The yeast cultures, maintained on Sabouraud dextrose agar were transferred to YN broth (Difco) and incubated overnight at 35° C. with shaking (250 rpm). After incubation, each culture was diluted in sterile water to yield a final concentration of 1-5×10^6 colony forming units (CFU)/ml.
(§4) 96-well microplates were inoculated using a MIC-2000 (Dynatech) which delivers […] per well yielding a final inoculum per well of 1.5-7.5×10^3 cells. The microplates were incubated at 35° C. for 24 hours. The minimum inhibitory concentrations (MICs) were recorded as the lowest concentrations of drug showing no visible growth.
(§5) After recording the MIC, the plates were shaken to resuspend the cells. Thereafter, 1.5 μl samples from the wells in the 96-well microplate were transferred to a single well tray containing Sabouraud dextrose agar. The inoculated trays were incubated 24 hours at 28° C. and then read for minimum fungicidal concentration (MFC). MFC is defined as the lowest concentration of drug showing no growth or less than 4 colonies per spot.

[3] = tested on: Candida tropicalis MY 1012; test: as above; assay type: cell-based; details: YNBD medium; MFC = lowest concentration showing no growth or less than 4 colonies per spot
Source text: as §1, §2, §3, §4, §5

Candida albicans MY 1750 = test: Minimum fungicidal concentration (MFC), separate similar experiment; assay type: cell-based
Source text: as §1
as §2, with “0.06 μg/ml. […]” for “0.06 μg/ml.”
96-well microplates were inoculated using a MIC-2000 (Dynatech) which delivers […] per well yielding a final inoculum per well of 1.5-7.5×10^3 cells. […] The minimum inhibitory concentrations (MICs) were recorded as the lowest concentrations of drug showing no visible growth.
After recording the MIC, the plates were shaken to resuspend the cells. […] The inoculated trays were incubated 24 hours at 28° C. and then read for minimum fungicidal concentration (MFC). […]

human blood cells = test: Red blood cell lysis, minimum lytic concentration (MLC); assay type: cell-based; details: 2 hours at room temperature, lowest concentration giving complete or partial lysis, tested 400 to 0.20 μg/ml
Source text: A harmful and potentially fatal side reaction of a number of drugs including certain antibiotically active echinocandin compounds is red blood cell lysis. […] The blood cell lysis property may be seen in the determination carried out in the following manner.
The blood employed is a 4 percent suspension of freshly drawn heparinized blood prepared by adding 2 milliliters of blood to 50 milliliters of sterile 5 percent dextrose.
Compoufid I was solubilized in a small volume of dimethylsulfoxide (DMSO) that was then diluted with distilled water to a final concentration of 5 percent DMSO to obtain a drug solution of 4.0 mg/ml. A 0.2 milliliter amount of the drug solution was added to 1.4 milliliters of sterile 5 percent dextrose to obtain the test solution. A diluent control was also prepared.
A 96-well microtiter plate with a well volume of 0.35 ml was used for the assay. Columns 2-12 were filled with 150 µl of sterile 5 percent dextrose. Then, 300 μl of test solutions were dispensed into the wells in column 1 and serially two-fold diluted in 5 percent dextrose to yield final test concentrations of from 400 to 0.20 μg/ml. 38 μl of red blood cell suspension were added to each well, the plate was gently agitated to mix the well contents and incubated at room temperature for 2 hours, and thereafter observed to determine extent of hemolysis as indicated by complete or partial clearing (lysis).

Pneumocystis carinii = Pneumocystis carinii pneumonia in immunosuppressed rats, reduction of cysts; assay type: in vivo, Sprague-Dawley rats; details: subcutaneous, twice daily for four days
Method: The compounds of the present invention may also be useful for inhibiting or alleviating Pneumocvstis carinii infections in immune compromised patients. […] Before drug treatment, two rats are sacrificed to confirm the presence of Pneumocystis carinii pneumonia (PCP). Five rats (weighing approximately 150 grams) are injected twice daily for four days subcutaneously (sc) with Compound I in 0.25 ml of vehicle (distilled water). A vehicle control is also carried out. All animals continue to receive dexasone in the drinking water and low protein diet during the treatment period. At the completion of the treatment, all animals are sacrificed, the lungs are removed and processed, and the extent of disease determined by microscopic examination of stained slides for the presence of cysts.
The dosage required for 90 percent reduction of cysts with representative compounds may be seen in the following table: […]

Substance | reduction of recoverable Candida CFUs (kidneys) (Candida albicans MY 1055 [1]) | MFC C. albicans MY 1055 (Candida albicans MY 1055 [2]) [mg/L] | MFC C. tropicalis MY 1012 [3] [mg/L] | MFC C. albicans MY 1750 (Candida albicans MY 1750) [mg/L] | MLC (minimum lytic concentration) (human blood cells) [mg/L] | dosage required for 90 percent reduction of cysts (Pneumocystis carinii) [mg/kg]
1-[4-hydroxy-5-aminoethyloxy-N^2 -(10,12-dimethyl-1-oxotetradecyl)ornithine]-5-(3-hydroxyglutamine)-6-(3-hydroxyproline) echinocandin B trifluoroacetate [--CH2 CH2 NH2 / DMTD] | greater than 99% | 0.125 | 0.25 | – | – | –
Glycylaminoethyloxy Ether as the Trifluoroacetate [--CH2 CH2 NHCOCH2 NH2 / DMTD] | – | 1.0 | 0.5 | 0.50 | > 400 | 0.04
